In PubChem BioAssay (NCI):
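These data come from cells grown in 96-well plates and exposed to compound for 48 hours at five concentrations. TGI denotes the concentration required for complete inhibition of growth.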

system: NCI/ADR-RES ovarian; assay: DTP human tumour cell line panel, 48 h

Row | Compound | TGI [µM]
1 | COc1cccc2cc(C(=O)O)c(=O)oc12 | > 100
2 | Ic1cccc(/C=C/CN2CCN(CCOC(c3ccccc3)c3ccccc3)CC2)c1 | 34.7
3 | CCN1CCC(O)(/C=C/c2ccc(C)cc2)C(C(=O)/C=C/c2ccc(C)cc2)C1 (configuration not stated) | 8.03
4 | CCn1sc2ccccc2c1=O | 69.3

system: HCT-15 colon; assay: DTP human tumour cell line panel, 48 h

Row | Compound | TGI [µM]
5 | COc1cccc2cc(C(=O)O)c(=O)oc12 | > 100
6 | Ic1cccc(/C=C/CN2CCN(CCOC(c3ccccc3)c3ccccc3)CC2)c1 | 34.4
7 | CCN1CCC(O)(/C=C/c2ccc(C)cc2)C(C(=O)/C=C/c2ccc(C)cc2)C1 (configuration not stated) | 16.2
8 | CCn1sc2ccccc2c1=O | 27.5

system: A549 NSCLC; assay: DTP human tumour cell line panel, 48 h

Row | Compound | TGI [µM]
9 | COc1cccc2cc(C(=O)O)c(=O)oc12 | > 100
10 | Ic1cccc(/C=C/CN2CCN(CCOC(c3ccccc3)c3ccccc3)CC2)c1 | 45
11 | CCN1CCC(O)(/C=C/c2ccc(C)cc2)C(C(=O)/C=C/c2ccc(C)cc2)C1 (configuration not stated) | 21.4
12 | CCn1sc2ccccc2c1=O | 40.4

system: UACC-257 melanoma; assay: DTP human tumour cell line panel, 48 h

Row | Compound | TGI [µM]
13 | COc1cccc2cc(C(=O)O)c(=O)oc12 | > 100
14 | Ic1cccc(/C=C/CN2CCN(CCOC(c3ccccc3)c3ccccc3)CC2)c1 | 31.4
15 | CCN1CCC(O)(/C=C/c2ccc(C)cc2)C(C(=O)/C=C/c2ccc(C)cc2)C1 (configuration not stated) | 25.5
16 | CCn1sc2ccccc2c1=O | 32.7

system: NCI-H522 lung; assay: DTP human tumour cell line panel, 48 h

Row | Compound | TGI [µM]
17 | COc1cccc2cc(C(=O)O)c(=O)oc12 | > 100
18 | Ic1cccc(/C=C/CN2CCN(CCOC(c3ccccc3)c3ccccc3)CC2)c1 | 36.8
19 | CCN1CCC(O)(/C=C/c2ccc(C)cc2)C(C(=O)/C=C/c2ccc(C)cc2)C1 (configuration not stated) | 3.62
20 | CCn1sc2ccccc2c1=O | 5.32

system: OVCAR-3 ovarian; assay: DTP human tumour cell line panel, 48 h

Row | Compound | TGI [µM]
21 | COc1cccc2cc(C(=O)O)c(=O)oc12 | > 100
22 | Ic1cccc(/C=C/CN2CCN(CCOC(c3ccccc3)c3ccccc3)CC2)c1 | 32.4
23 | CCN1CCC(O)(/C=C/c2ccc(C)cc2)C(C(=O)/C=C/c2ccc(C)cc2)C1 (configuration not stated) | 18.4
24 | CCn1sc2ccccc2c1=O | 29.7

system: OVCAR-4 ovarian; assay: DTP human tumour cell line panel, 48 h

Row | Compound | TGI [µM]
25 | COc1cccc2cc(C(=O)O)c(=O)oc12 | > 100
26 | Ic1cccc(/C=C/CN2CCN(CCOC(c3ccccc3)c3ccccc3)CC2)c1 | 51.1
27 | CCN1CCC(O)(/C=C/c2ccc(C)cc2)C(C(=O)/C=C/c2ccc(C)cc2)C1 (configuration not stated) | 23
28 | CCn1sc2ccccc2c1=O | 89.8

system: KM12 colon; assay: DTP human tumour cell line panel, 48 h

Row | Compound | TGI [µM]
29 | COc1cccc2cc(C(=O)O)c(=O)oc12 | > 100
30 | Ic1cccc(/C=C/CN2CCN(CCOC(c3ccccc3)c3ccccc3)CC2)c1 | 31
31 | CCN1CCC(O)(/C=C/c2ccc(C)cc2)C(C(=O)/C=C/c2ccc(C)cc2)C1 (configuration not stated) | 5.16
32 | CCn1sc2ccccc2c1=O | 18.8

system: HOP-62 NSCLC; assay: DTP human tumour cell line panel, 48 h

Row | Compound | TGI [µM]
33 | COc1cccc2cc(C(=O)O)c(=O)oc12 | > 100
34 | Ic1cccc(/C=C/CN2CCN(CCOC(c3ccccc3)c3ccccc3)CC2)c1 | 32.6
35 | CCN1CCC(O)(/C=C/c2ccc(C)cc2)C(C(=O)/C=C/c2ccc(C)cc2)C1 (configuration not stated) | 25.9
36 | CCn1sc2ccccc2c1=O | 34.3

system: M14 melanoma; assay: DTP human tumour cell line panel, 48 h

Row | Compound | TGI [µM]
37 | COc1cccc2cc(C(=O)O)c(=O)oc12 | > 100
38 | Ic1cccc(/C=C/CN2CCN(CCOC(c3ccccc3)c3ccccc3)CC2)c1 | 38.8
39 | CCN1CCC(O)(/C=C/c2ccc(C)cc2)C(C(=O)/C=C/c2ccc(C)cc2)C1 (configuration not stated) | 9.52
40 | CCn1sc2ccccc2c1=O | 12

system: SF-295 CNS; assay: DTP human tumour cell line panel, 48 h

Row | Compound | TGI [µM]
41 | COc1cccc2cc(C(=O)O)c(=O)oc12 | > 100
42 | Ic1cccc(/C=C/CN2CCN(CCOC(c3ccccc3)c3ccccc3)CC2)c1 | 33.1
43 | CCN1CCC(O)(/C=C/c2ccc(C)cc2)C(C(=O)/C=C/c2ccc(C)cc2)C1 (configuration not stated) | 22.9
44 | CCn1sc2ccccc2c1=O | > 55.1

system: HL-60(TB) leukemia; assay: DTP human tumour cell line panel, 48 h

Row | Compound | TGI [µM]
45 | COc1cccc2cc(C(=O)O)c(=O)oc12 | > 100
46 | Ic1cccc(/C=C/CN2CCN(CCOC(c3ccccc3)c3ccccc3)CC2)c1 | 30.9
47 | CCN1CCC(O)(/C=C/c2ccc(C)cc2)C(C(=O)/C=C/c2ccc(C)cc2)C1 (configuration not stated) | 5.15
48 | CCn1sc2ccccc2c1=O | 13

system: MDA-MB-231 breast; assay: DTP human tumour cell line panel, 48 h

Row | Compound | TGI [µM]
49 | COc1cccc2cc(C(=O)O)c(=O)oc12 | > 100
50 | Ic1cccc(/C=C/CN2CCN(CCOC(c3ccccc3)c3ccccc3)CC2)c1 | 32.4
51 | CCN1CCC(O)(/C=C/c2ccc(C)cc2)C(C(=O)/C=C/c2ccc(C)cc2)C1 (configuration not stated) | 5.48
52 | CCn1sc2ccccc2c1=O | 27.2

system: ACHN renal; assay: DTP human tumour cell line panel, 48 h

Row | Compound | TGI [µM]
53 | COc1cccc2cc(C(=O)O)c(=O)oc12 | > 100
54 | Ic1cccc(/C=C/CN2CCN(CCOC(c3ccccc3)c3ccccc3)CC2)c1 | > 100
55 | CCN1CCC(O)(/C=C/c2ccc(C)cc2)C(C(=O)/C=C/c2ccc(C)cc2)C1 (configuration not stated) | 14.7
56 | CCn1sc2ccccc2c1=O | 20.5

system: SK-MEL-2 melanoma; assay: DTP human tumour cell line panel, 48 h

Row | Compound | TGI [µM]
57 | COc1cccc2cc(C(=O)O)c(=O)oc12 | > 100
58 | Ic1cccc(/C=C/CN2CCN(CCOC(c3ccccc3)c3ccccc3)CC2)c1 | 38.3
59 | CCN1CCC(O)(/C=C/c2ccc(C)cc2)C(C(=O)/C=C/c2ccc(C)cc2)C1 (configuration not stated) | 15.9
60 | CCn1sc2ccccc2c1=O | 53.9

system: MCF7 breast; assay: DTP human tumour cell line panel, 48 h

Row | Compound | TGI [µM]
61 | COc1cccc2cc(C(=O)O)c(=O)oc12 | > 100
62 | Ic1cccc(/C=C/CN2CCN(CCOC(c3ccccc3)c3ccccc3)CC2)c1 | 30.5
63 | CCN1CCC(O)(/C=C/c2ccc(C)cc2)C(C(=O)/C=C/c2ccc(C)cc2)C1 (configuration not stated) | 6.36
64 | CCn1sc2ccccc2c1=O | 26.8

system: TK-10 renal; assay: DTP human tumour cell line panel, 48 h

Row | Compound | TGI [µM]
65 | COc1cccc2cc(C(=O)O)c(=O)oc12 | > 100
66 | Ic1cccc(/C=C/CN2CCN(CCOC(c3ccccc3)c3ccccc3)CC2)c1 | 31.6
67 | CCN1CCC(O)(/C=C/c2ccc(C)cc2)C(C(=O)/C=C/c2ccc(C)cc2)C1 (configuration not stated) | 14.4
68 | CCn1sc2ccccc2c1=O | 30.9

system: HS 578T breast; assay: DTP human tumour cell line panel, 48 h

Row | Compound | TGI [µM]
69 | COc1cccc2cc(C(=O)O)c(=O)oc12 | > 100
70 | Ic1cccc(/C=C/CN2CCN(CCOC(c3ccccc3)c3ccccc3)CC2)c1 | 76.2
71 | CCN1CCC(O)(/C=C/c2ccc(C)cc2)C(C(=O)/C=C/c2ccc(C)cc2)C1 (configuration not stated) | 7.55
72 | CCn1sc2ccccc2c1=O | 32.4

system: IGROV1 ovarian; assay: DTP human tumour cell line panel, 48 h

Row | Compound | TGI [µM]
73 | COc1cccc2cc(C(=O)O)c(=O)oc12 | > 100
74 | Ic1cccc(/C=C/CN2CCN(CCOC(c3ccccc3)c3ccccc3)CC2)c1 | 40.9
75 | CCN1CCC(O)(/C=C/c2ccc(C)cc2)C(C(=O)/C=C/c2ccc(C)cc2)C1 (configuration not stated) | 17.5
76 | CCn1sc2ccccc2c1=O | 19.6

system: A498 renal; assay: DTP human tumour cell line panel, 48 h

Row | Compound | TGI [µM]
77 | COc1cccc2cc(C(=O)O)c(=O)oc12 | > 100
78 | Ic1cccc(/C=C/CN2CCN(CCOC(c3ccccc3)c3ccccc3)CC2)c1 | 31.7
79 | CCN1CCC(O)(/C=C/c2ccc(C)cc2)C(C(=O)/C=C/c2ccc(C)cc2)C1 (configuration not stated) | 24.6
80 | CCn1sc2ccccc2c1=O | > 60

system: MDA-N; assay: DTP human tumour cell line panel, 48 h

Row | Compound | TGI [µM]
81 | COc1cccc2cc(C(=O)O)c(=O)oc12 | > 100
82 | Ic1cccc(/C=C/CN2CCN(CCOC(c3ccccc3)c3ccccc3)CC2)c1 | 41.9
83 | CCN1CCC(O)(/C=C/c2ccc(C)cc2)C(C(=O)/C=C/c2ccc(C)cc2)C1 (configuration not stated) | 10.3
84 | CCn1sc2ccccc2c1=O | 8.99

system: 786-0 renal; assay: DTP human tumour cell line panel, 48 h

Row | Compound | TGI [µM]
85 | COc1cccc2cc(C(=O)O)c(=O)oc12 | > 100
86 | Ic1cccc(/C=C/CN2CCN(CCOC(c3ccccc3)c3ccccc3)CC2)c1 | 33.7
87 | CCN1CCC(O)(/C=C/c2ccc(C)cc2)C(C(=O)/C=C/c2ccc(C)cc2)C1 (configuration not stated) | 4.29
88 | CCn1sc2ccccc2c1=O | 6.87

system: SK-MEL-28 melanoma; assay: DTP human tumour cell line panel, 48 h

Row | Compound | TGI [µM]
89 | COc1cccc2cc(C(=O)O)c(=O)oc12 | > 100
90 | Ic1cccc(/C=C/CN2CCN(CCOC(c3ccccc3)c3ccccc3)CC2)c1 | 50.1
91 | CCN1CCC(O)(/C=C/c2ccc(C)cc2)C(C(=O)/C=C/c2ccc(C)cc2)C1 (configuration not stated) | 14.8
92 | CCn1sc2ccccc2c1=O | 36

system: K-562 leukemia; assay: DTP human tumour cell line panel, 48 h

Row | Compound | TGI [µM]
93 | COc1cccc2cc(C(=O)O)c(=O)oc12 | > 100
94 | Ic1cccc(/C=C/CN2CCN(CCOC(c3ccccc3)c3ccccc3)CC2)c1 | 23.9
95 | CCN1CCC(O)(/C=C/c2ccc(C)cc2)C(C(=O)/C=C/c2ccc(C)cc2)C1 (configuration not stated) | 6.07
96 | CCn1sc2ccccc2c1=O | > 100

system: RPMI-8226 leukemia; assay: DTP human tumour cell line panel, 48 h

Row | Compound | TGI [µM]
97 | COc1cccc2cc(C(=O)O)c(=O)oc12 | > 100
98 | Ic1cccc(/C=C/CN2CCN(CCOC(c3ccccc3)c3ccccc3)CC2)c1 | 14.3
99 | CCN1CCC(O)(/C=C/c2ccc(C)cc2)C(C(=O)/C=C/c2ccc(C)cc2)C1 (configuration not stated) | 10.8
100 | CCn1sc2ccccc2c1=O | > 100

system: SR leukemia; assay: DTP human tumour cell line panel, 48 h

Row | Compound | TGI [µM]
101 | COc1cccc2cc(C(=O)O)c(=O)oc12 | > 100
102 | Ic1cccc(/C=C/CN2CCN(CCOC(c3ccccc3)c3ccccc3)CC2)c1 | 28.9
103 | CCN1CCC(O)(/C=C/c2ccc(C)cc2)C(C(=O)/C=C/c2ccc(C)cc2)C1 (configuration not stated) | 6.84
104 | CCn1sc2ccccc2c1=O | > 100

system: HOP-92 NSCLC; assay: DTP human tumour cell line panel, 48 h

Row | Compound | TGI [µM]
105 | COc1cccc2cc(C(=O)O)c(=O)oc12 | > 100
106 | Ic1cccc(/C=C/CN2CCN(CCOC(c3ccccc3)c3ccccc3)CC2)c1 | 29.4
107 | CCN1CCC(O)(/C=C/c2ccc(C)cc2)C(C(=O)/C=C/c2ccc(C)cc2)C1 (configuration not stated) | 19.6
108 | CCn1sc2ccccc2c1=O | 22.5

system: UO-31 renal; assay: DTP human tumour cell line panel, 48 h

Row | Compound | TGI [µM]
109 | COc1cccc2cc(C(=O)O)c(=O)oc12 | > 100
110 | Ic1cccc(/C=C/CN2CCN(CCOC(c3ccccc3)c3ccccc3)CC2)c1 | 29
111 | CCN1CCC(O)(/C=C/c2ccc(C)cc2)C(C(=O)/C=C/c2ccc(C)cc2)C1 (configuration not stated) | 12.4

system: COLO 205 colon; assay: DTP human tumour cell line panel, 48 h

Row | Compound | TGI [µM]
112 | COc1cccc2cc(C(=O)O)c(=O)oc12 | > 100
113 | Ic1cccc(/C=C/CN2CCN(CCOC(c3ccccc3)c3ccccc3)CC2)c1 | 65.1
114 | CCN1CCC(O)(/C=C/c2ccc(C)cc2)C(C(=O)/C=C/c2ccc(C)cc2)C1 (configuration not stated) | 4.45
115 | CCn1sc2ccccc2c1=O | 29.3

system: UACC-62 melanoma; assay: DTP human tumour cell line panel, 48 h

Row | Compound | TGI [µM]
116 | COc1cccc2cc(C(=O)O)c(=O)oc12 | > 100
117 | Ic1cccc(/C=C/CN2CCN(CCOC(c3ccccc3)c3ccccc3)CC2)c1 | 37.4
